Patent US8349870B2 (priority 2008, dated 2013)
Where two headings read alike, the source gives them in different places.

Experiments:
Format in all cases: in vivo
Phytophthora infestans [1] = details: tomato late blight, sprayed the day before inoculation
Plasmopara viticola = assay: Test A: grape downy mildew, spray after inoculation, visual disease rating (% disease control); details: 100 = 100% disease control, 0 = no control
Text: General protocol for preparing test suspensions for Test A-C: The test compounds were first dissolved in acetone in an amount equal to 3% of the final volume and then suspended at the desired concentration (in ppm) in acetone and purified water (50/50 mix by volume) containing 250 ppm of the surfactant Trem® 014 (polyhydric alcohol esters). The resulting test suspensions were then used in Tests A-C. Spraying a 200 ppm test suspension to the point of run-off on the test plants was equivalent to a rate of 500 g/ha.
Grape seedlings were inoculated with a spore suspension of Plasmopara viticola (the causal agent of grape downy mildew) and incubated in a saturated atmosphere at 20° C. for 24 h. After a short drying period, the test suspension was sprayed to the point of run-off on the grape seedlings, which were then moved to a growth chamber at 20° C. for 5 days, after which time the grape seedling were placed back into a saturated atmosphere at 20° C. for 24 h. Upon removal, visual disease ratings were made.
Results for Tests A-C are given in Table A. In the table, a rating of 100 indicates 100% disease control and a rating of 0 indicates no disease control (relative to the controls). A dash (-) indicates no test results, “*” indicates compound was tested at 40 ppm and “**” indicates compound was tested at 10 ppm.

Phytophthora infestans [2] = details: tomato late blight, sprayed 17 h after inoculation
[3] = Cmpd No. unmarked, rate not stated in table (b1197 mentions a 200 ppm test suspension)

| Molecule | Test B rating (% disease control) (Phytophthora infestans [1]; "*" compound tested at 40 ppm) | Test A rating (% disease control) (Plasmopara viticola; "*" compound tested at 40 ppm) | Test C rating (% disease control) (Phytophthora infestans [2]; "*" compound tested at 40 ppm) | also measured |
| --- | --- | --- | --- | --- |
| O=C(NCC1CCCCC1)N1CCC(c2nc(C3=NOC(c4ccccc4)C3)cs2)CC1 (stereo not drawn) [compound 20] | 100% | 95% | 93% | – |
| Cc1ccc(C)c(C(=O)C(=O)N2CCC(c3nc(C4=NOC(c5c(F)cccc5F)C4)cs3)CC2)c1 (stereo not drawn) [compound 52] | 100% | 100% | 96% | – |
| 5-chloro-1-[4-[4-[4,5-dihydro-5-(2-fluorophenyl)-3-isoxazolyl]-2-thiazolyl]-1-piperidinyl-1-pentanone [Example 7] | – | – | – | Test B rating (% disease control) (Phytophthora infestans [1]; [3]): 100%; Test A rating (% disease control) (Plasmopara viticola; [3]): 98%; Test C rating (% disease control) (Phytophthora infestans [2]; [3]): 71% |
| methyl 4-[4-(4,5-dihydro-5-phenyl-3-isoxazoly)-2-thiazolyl]-N-(2,5-dimethylphenyl)-1-piperidinecarboximidate [Example 3] | 100% | 99% | 99% | – |
| CCOC(=O)CNC(=O)N1CCC(c2nc(C3=NOC(c4ccccc4)C3)cs2)CC1 (stereo not drawn) [compound 18] | 63% | 39% | 26% | – |
| CCCC(=O)C(=O)N1CCC(c2nc(C3=NOC(c4c(F)cccc4F)C3)cs2)CC1 (stereo not drawn) [compound 67] | 100% | 100% | 99% | – |
| Cc1ccc(C)c(N=C(N(C)C)N2CCC(c3nc(C4=NOC(c5c(F)cccc5F)C4)cs3)CC2)c1 (stereo not drawn) [compound 38] | 33% | 8% | 0% | – |
| CCONC(=Nc1cc(C)ccc1C)N1CCC(c2nc(C3=NOC(c4c(F)cccc4F)C3)cs2)CC1 (stereo not drawn) [compound 39] | 100% | 99% | 97% | – |
| Cc1cc(C(F)(F)F)nn1C(=O)C(=O)N1CCC(c2nc(C3=NOC(c4c(F)cccc4F)C3)cs2)CC1 (stereo not drawn) [compound 43] | 25% | 0% | 0% | – |
| CCC(C)NC(=O)N1CCC(c2nc(C3=NOC(c4ccccc4)C3)cs2)CC1 (stereo not drawn) [compound 17] | 100% | 86% | 95% | – |
| Cc1ccc(C)c(N=C(NO)N2CCC(c3nc(C4=NOC(c5c(F)cccc5F)C4)cs3)CC2)c1 (stereo not drawn) [compound 25] | 100% | 100% | 99% | – |
| CCCNC(=O)N1CCC(c2nc(C3=NOC(c4ccccc4)C3)cs2)CC1 (stereo not drawn) [compound 14] | – | – | – | Test B rating (% disease control) (Phytophthora infestans [1]; [3]): 100%; Test A rating (% disease control) (Plasmopara viticola; [3]): 88%; Test C rating (% disease control) (Phytophthora infestans [2]; [3]): 99% |
| O=C(C(=O)N1CCC(c2nc(C3=NOC(c4ccccc4F)C3)cs2)CC1)c1ccco1 (stereo not drawn) [compound 47] | 33% | 85% | 0% | – |
| O=C(C(O)Cc1ccccc1)N1CCC(c2nc(C3=NOC(c4c(F)cccc4F)C3)cs2)CC1 (mixture of isomers) [compound 50] | 87% | 0% | 0% | – |
| CC(C)C(O)C(=O)N1CCC(c2nc(C3=NOC(c4c(F)cccc4F)C3)cs2)CC1 (stereo not drawn) [compound 49] | 98% | 97% | 100% | – |
| O=C(CC1CCCC(C(F)(F)F)C1)N1CCC(c2nc(C3=NOC(c4c(F)cccc4F)C3)cs2)CC1 (stereo not drawn) [compound 76] | 67% | 66% | 0% | – |

| Molecule | Test B rating (% disease control) (Phytophthora infestans [1]; "*" compound tested at 40 ppm) | Test A rating (% disease control) (Plasmopara viticola; "*" compound tested at 40 ppm) | Test C rating (% disease control) (Phytophthora infestans [2]; "*" compound tested at 40 ppm) | also measured |
| --- | --- | --- | --- | --- |
| Cc1ccc(C)c(N=C(NC#N)N2CCC(c3nc(C4=NOC(c5c(F)cccc5F)C4)cs3)CC2)c1 (stereo not drawn) [compound 42] | 100% | 99% | 99% | – |
| Cc1ccc(C)c(C(=O)NC(=O)N2CCC(c3nc(C4=NOC(c5ccccc5F)C4)cs3)CC2)c1 (stereo not drawn) [compound 37] | 63% | 0% | 0% | – |
| O=C(NC1CCCC1)N1CCC(c2nc(C3=NOC(c4ccccc4)C3)cs2)CC1 (stereo not drawn) [compound 19] | 100% | 67% | 63% | – |
| CC(C)C(O)C(=O)N1CCC(c2nc(C3=NOC(c4c(F)cccc4F)C3)cs2)CC1 (mixture of isomers) [compound 55] | – | – | – | Test B rating (% disease control) (Phytophthora infestans [1]; "**" compound tested at 10 ppm): 100%; Test A rating (% disease control) (Plasmopara viticola; "**" compound tested at 10 ppm): 10%; Test C rating (% disease control) (Phytophthora infestans [2]; "**" compound tested at 10 ppm): 99% |
| CC(=O)OCC(=O)N1CCC(c2nc(C3=NOC(c4c(F)cccc4F)C3)cs2)CC1 (stereo not drawn) [compound 64] | 100% | 80% | 68% | – |
| Cc1ccc(C)c(C(=O)C(=O)N2CCC(c3nc(C4=NOC(c5ccccc5F)C4)cs3)CC2)c1 (stereo not drawn) [compound 40] | 100% | 99% | 98% | – |
| CC(C)NC(=O)N1CCC(c2nc(C3=NOC(c4ccccc4)C3)cs2)CC1 (stereo not drawn) [compound 15] | – | – | – | Test B rating (% disease control) (Phytophthora infestans [1]; [3]): 100%; Test A rating (% disease control) (Plasmopara viticola; [3]): 86%; Test C rating (% disease control) (Phytophthora infestans [2]; [3]): 91% |
| O=C(COCCC(F)(F)F)N1CCC(c2nc(C3=NOC(c4c(F)cccc4F)C3)cs2)CC1 (stereo not drawn) [compound 75] | – | – | – | Test B rating (% disease control) (Phytophthora infestans [1]; "**" compound tested at 10 ppm): 100%; Test A rating (% disease control) (Plasmopara viticola; "**" compound tested at 10 ppm): 100%; Test C rating (% disease control) (Phytophthora infestans [2]; "**" compound tested at 10 ppm): 97% |
| CC(=O)NC(=Nc1cc(C)ccc1C)N1CCC(c2nc(C3=NOC(c4ccccc4)C3)cs2)CC1 (stereo not drawn) [compound 27] | 99% | 4% | 58% | – |
| CCOC(=Nc1cc(C)ccc1C)N1CCC(c2nc(C3=NOC(c4ccccc4)C3)cs2)CC1 (stereo not drawn) [compound 29] | 99% | 92% | 80% | – |
| Cc1ccc(C)c(N=C(C#N)N2CCC(c3nc(C4=NOC(c5ccccc5)C4)cs3)CC2)c1 (stereo not drawn) [compound 32] | 58% | 31% | 0% | – |
| Cc1ccc(C)c(N=C(N2CCOCC2)N2CCC(c3nc(C4=NOC(c5ccccc5)C4)cs3)CC2)c1 (stereo not drawn) [compound 30] | 64% | 58% | 17% | – |
| Cc1ccc(C)c(N=CN2CCC(c3nc(C4=NOC(c5ccccc5)C4)cs3)CC2)c1 (stereo not drawn) [Example 2, N-[[4-[4-(4,5-dihydro-5-phenyl-3-isoxazolyl)-2-thiazolyl]-1-piperidinyl]methylene]-2,5-dimethylbenzenamine] | – | – | – | Test B rating (% disease control) (Phytophthora infestans [1]; [3]): 88%; Test A rating (% disease control) (Plasmopara viticola; [3]): 17%; Test C rating (% disease control) (Phytophthora infestans [2]; [3]): 0% |
| CC(C)CC(O)C(=O)N1CCC(c2nc(C3=NOC(c4c(F)cccc4F)C3)cs2)CC1 (mixture of isomers) [compound 56] | 84% | 98% | 50% | – |
| CC(C)(C)NC(=O)N1CCC(c2nc(C3=NOC(c4ccccc4)C3)cs2)CC1 (stereo not drawn) [compound 16] | – | – | – | Test B rating (% disease control) (Phytophthora infestans [1]; [3]): 100%; Test A rating (% disease control) (Plasmopara viticola; [3]): 86%; Test C rating (% disease control) (Phytophthora infestans [2]; [3]): 95% |
